# Reference: PubChem BioAssay (NCI)
#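 Five concentrations, 48 hours, 96-well plates. Abbreviation: GI50, concentration required for 50% inhibition of growth. TGI: concentration producing complete growth inhibition.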
# Key:
# Test in all cases: DTP human tumour cell line panel, 48 h
# [1] = system: MALME-3M melanoma
# [2] = system: EKVX NSCLC
# [3] = system: SK-MEL-2 melanoma
# [4] = system: A549 NSCLC
# [5] = system: SF-295 CNS
# [6] = system: HCT-15 colon
# [7] = system: UACC-62 melanoma
# [8] = system: SW-620 colon
# [9] = system: HS 578T breast
# [10] = system: SN12C renal
# [11] = system: BT-549 breast
# [12] = system: HL-60(TB) leukemia
# [13] = system: UACC-257 melanoma
# [14] = system: HOP-92 NSCLC
# [15] = system: NCI-H23 lung
# [16] = system: OVCAR-3 ovarian
# [17] = system: DU-145 prostate
# [18] = system: KM12 colon
# [19] = system: A498 renal
# [20] = system: UO-31 renal
# [21] = system: SK-MEL-5 melanoma
# [22] = system: MDA-MB-231 breast
# [23] = system: U251 CNS
# [24] = system: RXF 393 renal
# [25] = system: MOLT-4 leukemia
# [26] = system: CAKI-1 renal
# [27] = system: MCF7 breast
# [28] = system: SF-268 CNS
# [29] = system: SR leukemia
# [30] = system: NCI-H522 lung
# [31] = system: ACHN renal
# [32] = system: HOP-62 NSCLC
# [33] = system: M14 melanoma
# [34] = system: SNB-19 CNS
# [35] = system: MDA-MB-435
# [36] = system: OVCAR-5 ovarian
# [37] = system: TK-10 renal
# [38] = system: SNB-75 CNS
# [39] = system: OVCAR-4 ovarian
# [40] = system: SF-539 CNS
# [41] = system: SK-OV-3 ovarian
# [42] = system: HCC-2998 colon
# [43] = system: CCRF-CEM leukemia
# [44] = system: OVCAR-8 ovarian
# [45] = system: LOX IMVI melanoma
# [46] = system: IGROV1 ovarian
# [47] = system: NCI/ADR-RES ovarian
# [48] = system: HCT-116 colon
# [49] = system: PC-3 prostate
# [50] = system: K-562 leukemia
# [51] = system: NCI-H460 lung
# [52] = system: RPMI-8226 leukemia
# [53] = system: 786-0 renal
# [54] = system: HT29 colon
# [55] = system: NCI-H226 lung
# [56] = system: T-47D breast
# [57] = system: COLO 205 colon
# [58] = system: SK-MEL-28 melanoma
smiles,measurement,setting,value
O=C(/C=C/c1ccc(Cl)cc1)c1ccc(Nc2nc(Nc3ccc(F)cc3)nc(Nc3ccc(F)cc3)n2)cc1,GI50,[1],> 100 µM
same,TGI,[1],> 100 µM
same,GI50,[2],95.7 µM
same,TGI,[2],> 100 µM
same,GI50,[3],40.8 µM
same,TGI,[3],> 100 µM
same,GI50,[4],49.9 µM
same,TGI,[4],> 100 µM
same,GI50,[5],22.6 µM
same,TGI,[5],58.5 µM
same,GI50,[6],53.7 µM
same,TGI,[6],> 100 µM
same,GI50,[7],> 100 µM
same,TGI,[7],> 100 µM
same,GI50,[8],29.2 µM
same,TGI,[8],76.5 µM
same,GI50,[9],52.3 µM
same,TGI,[9],> 100 µM
same,GI50,[10],> 100 µM
same,TGI,[10],> 100 µM
same,GI50,[11],19 µM
same,TGI,[11],36.9 µM
same,GI50,[12],39 µM
same,TGI,[12],> 100 µM
same,GI50,[13],> 100 µM
same,TGI,[13],> 100 µM
same,GI50,[14],26.6 µM
same,TGI,[14],> 100 µM
same,GI50,[15],41 µM
same,TGI,[15],> 100 µM
same,GI50,[16],32.2 µM
same,TGI,[16],89.8 µM
same,GI50,[17],> 100 µM
same,TGI,[17],> 100 µM
same,GI50,[18],25.7 µM
same,TGI,[18],> 100 µM
same,GI50,[19],34.6 µM
same,TGI,[19],98.5 µM
same,GI50,[20],19.4 µM
same,TGI,[20],> 100 µM
same,GI50,[21],46.9 µM
same,TGI,[21],> 100 µM
same,GI50,[22],> 100 µM
same,TGI,[22],> 100 µM
same,GI50,[23],19.8 µM
same,TGI,[23],41.6 µM
same,GI50,[24],21.2 µM
same,TGI,[24],46.1 µM
same,GI50,[25],24.5 µM
same,TGI,[25],98.7 µM
same,GI50,[26],80.4 µM
same,TGI,[26],> 100 µM
same,GI50,[27],9.45 µM
same,TGI,[27],> 100 µM
same,GI50,[28],56.1 µM
same,TGI,[28],> 100 µM
same,GI50,[29],22.3 µM
same,TGI,[29],74.3 µM
same,GI50,[30],35.6 µM
same,TGI,[30],> 100 µM
same,GI50,[31],72 µM
same,TGI,[31],> 100 µM
same,GI50,[32],> 100 µM
same,TGI,[32],> 100 µM
same,GI50,[33],20.7 µM
same,TGI,[33],42 µM
same,GI50,[34],94.1 µM
same,TGI,[34],> 100 µM
same,GI50,[35],23 µM
same,TGI,[35],50 µM
same,GI50,[36],> 100 µM
same,TGI,[36],> 100 µM
same,GI50,[37],> 100 µM
same,TGI,[37],> 100 µM
same,GI50,[38],67.8 µM
same,TGI,[38],> 100 µM
same,GI50,[39],65.7 µM
same,TGI,[39],> 100 µM
same,GI50,[40],24 µM
same,TGI,[40],51.9 µM
same,GI50,[41],43.7 µM
same,TGI,[41],> 100 µM
same,GI50,[42],17.7 µM
same,TGI,[42],41.2 µM
same,GI50,[43],31.9 µM
same,TGI,[43],> 100 µM
same,GI50,[44],74.4 µM
same,TGI,[44],> 100 µM
same,GI50,[45],27.4 µM
same,TGI,[45],70.2 µM
same,GI50,[46],13.7 µM
same,TGI,[46],30.9 µM
same,GI50,[47],43.9 µM
same,TGI,[47],> 100 µM
same,GI50,[48],12.2 µM
same,TGI,[48],25.5 µM
same,GI50,[49],41.1 µM
same,TGI,[49],> 100 µM
same,GI50,[50],53.1 µM
same,TGI,[50],> 100 µM
same,GI50,[51],38.9 µM
same,TGI,[51],> 100 µM
same,GI50,[52],4.99 µM
same,TGI,[52],26.3 µM
same,GI50,[53],23.1 µM
same,TGI,[53],56.3 µM
same,GI50,[54],35.1 µM
same,TGI,[54],> 100 µM
same,GI50,[55],24.5 µM
same,TGI,[55],53.8 µM
same,GI50,[56],19.2 µM
same,TGI,[56],> 100 µM
same,GI50,[57],16.7 µM
same,TGI,[57],45.4 µM
same,GI50,[58],24.6 µM
same,TGI,[58],61.7 µM
